PubChem BioAssay AID2060337 (Molecular Pharmacology Branch, DTP, NCI, 2025)
Where “and” joins values, the source holds several entries; their conditions need not be identical. Equal entries are not always repeated.

Tested on: 832693-133-R-J1-PDC multi-cell spheroids, viability
Assay: Anticancer human tumor 832693-133-R-J1-PDC patient-derived head and neck squamous carcinoma cell line growth inhibition [IpAb]
Conditions: for viability, T/C: stronger effect = lower value
Procedure, shortened: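 Combinations with ipatasertib or abemaciclib were tested on tumour spheroids holding HUVEC (25%) and MSC (15%) alongside 60% malignant cells. Top concentration was at or near clinical Cmax (10 microM if undefined), descending in half-log steps.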

[1] = curve of first compound, second compound 0.01 µM
[2] = curve of first compound, second compound 0.0316 µM
[3] = curve of first compound, second compound 0.1 µM
[4] = curve of first compound, second compound 0.316 µM
[5] = curve of first compound, second compound 1 µM
[6] = second compound 0.1 µM, first compound 0.00316 µM
[7] = second compound 0.1 µM, first compound 0.01 µM
[8] = second compound 0.1 µM, first compound 0.0316 µM
[9] = second compound 0.1 µM, first compound 0.1 µM
[10] = second compound 0.316 µM, first compound 0.00316 µM
[11] = second compound 0.316 µM, first compound 0.01 µM
[12] = second compound 0.316 µM, first compound 0.0316 µM
[13] = second compound 0.316 µM, first compound 0.1 µM
[14] = second compound 1 µM, first compound 0.00316 µM
[15] = second compound 1 µM, first compound 0.01 µM
[16] = second compound 1 µM, first compound 0.0316 µM
[17] = second compound 1 µM, first compound 0.1 µM
[18] = curve of first compound, second compound 3.16 µM
[19] = curve of first compound, second compound 10 µM
[20] = second compound 0.1 µM, first compound 0.00949 µM
[21] = second compound 0.1 µM, first compound 0.03 µM
[22] = second compound 0.1 µM, first compound 0.0949 µM
[23] = second compound 0.1 µM, first compound 0.3 µM
[24] = second compound 0.1 µM, first compound 0.949 µM
[25] = second compound 0.1 µM, first compound 3 µM
[26] = second compound 0.316 µM, first compound 0.00949 µM
[27] = second compound 0.316 µM, first compound 0.03 µM
[28] = second compound 0.316 µM, first compound 0.0949 µM
[29] = second compound 0.316 µM, first compound 0.3 µM
[30] = second compound 0.316 µM, first compound 0.949 µM
[31] = second compound 0.316 µM, first compound 3 µM
[32] = second compound 1 µM, first compound 0.00949 µM
[33] = second compound 1 µM, first compound 0.03 µM
[34] = second compound 1 µM, first compound 0.0949 µM
[35] = second compound 1 µM, first compound 0.3 µM
[36] = second compound 1 µM, first compound 0.949 µM
[37] = second compound 1 µM, first compound 3 µM
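Further: spheroids exposed to the drugs for one week before the viability readout.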
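Wherever viability, T/C is given: 100% = DMSO vehicle control wells.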

Work on COc1c(OCCCN2CCOCC2)ccc2c3n(c(=NC(=O)c4cnc(N)nc4)nc12)CCN3 + CCN1CCN(Cc2ccc(Nc3ncc(F)c(-c4cc(F)c5nc(C)n(C(C)C)c5c4)n3)nc2)CC1 yielded an IC50 [1] of 0.0144 µM, an IC50 [2] of 0.0112 µM and an IC50 [3] of 0.00716 µM. The IC50 [4] was 0.00444 µM, the IC50 [5] was 0.00611 µM and the viability, T/C (second compound 0.01 µM, first compound 0.00316 µM) was 89.4%. For the same compound, the viability, T/C (second compound 0.01 µM, first compound 0.01 µM) was 61.8%, the viability, T/C (second compound 0.01 µM, first compound 0.0316 µM) was 24.7% and the viability, T/C (second compound 0.01 µM, first compound 0.1 µM) was 7.08%. For the same compound, the viability, T/C (second compound 0.01 µM, first compound 0.316 µM) was 3.46%, the viability, T/C (second compound 0.01 µM, first compound 1 µM) was 5.82% and the viability, T/C (second compound 0.0316 µM, first compound 0.00316 µM) was 74.2%. It also gave a viability, T/C (second compound 0.0316 µM, first compound 0.01 µM) of 52.7%, a viability, T/C (second compound 0.0316 µM, first compound 0.0316 µM) of 23.4% and a viability, T/C (second compound 0.0316 µM, first compound 0.1 µM) of 5.88%. For the same compound, the viability, T/C (second compound 0.0316 µM, first compound 0.316 µM) was 3%, the viability, T/C (second compound 0.0316 µM, first compound 1 µM) was 2.63% and the viability, T/C [6] was 60.1%. For the same compound, the viability, T/C [7] was 45.6%, the viability, T/C [8] was 22.1% and the viability, T/C [9] was 6.68%. For the same compound, the viability, T/C (second compound 0.1 µM, first compound 0.316 µM) was 3.33%, the viability, T/C (second compound 0.1 µM, first compound 1 µM) was 3.51% and the viability, T/C [10] was 53.8%. For the same compound, the viability, T/C [11] was 40.8%, the viability, T/C [12] was 21.5% and the viability, T/C [13] was 9.72%. For the same compound, the viability, T/C (second compound 0.316 µM, first compound 0.316 µM) was 6.61%, the viability, T/C (second compound 0.316 µM, first compound 1 µM) was 6.55% and the viability, T/C [14] was 53.2%. It also gave a viability, T/C [15] of 47.7%, a viability, T/C [16] of 23.4% and a viability, T/C [17] of 16.2%. It also gave a viability, T/C (second compound 1 µM, first compound 0.316 µM) of 12% and a viability, T/C (second compound 1 µM, first compound 1 µM) of 14.8%.

For CC(C)(C)c1cnc(CSc2cnc(NC(=O)C3CCNCC3)s2)o1 + CC(C)NCC(C(=O)N1CCN(c2ncnc3c2C(C)CC3O)CC1)c1ccc(Cl)cc1, the IC50 [3] was 0.219 µM, the IC50 [4] was 0.189 µM and the IC50 [5] was 0.137 µM. It also gave an IC50 [18] of 0.133 µM, an IC50 [19] of 0.158 µM and a viability, T/C [20] of 101%. It also gave a viability, T/C [21] of 122%, a viability, T/C [22] of 146% and a viability, T/C [23] of 22.2%. The viability, T/C [24] was 1.14%, the viability, T/C [25] was 1.67% and the viability, T/C [26] was 92.5%. For the same compound, the viability, T/C [27] was 94.2%, the viability, T/C [28] was 113% and the viability, T/C [29] was 16.5%. The viability, T/C [30] was 0.85%, the viability, T/C [31] was 1.58% and the viability, T/C [32] was 67.7%. For the same compound, the viability, T/C [33] was 70.7%, the viability, T/C [34] was 75.6% and the viability, T/C [35] was 4.32%. For the same compound, the viability, T/C [36] was 1.17%, the viability, T/C [37] was 1.18% and the viability, T/C (second compound 3.16 µM, first compound 0.00949 µM) was 60%. It also gave a viability, T/C (second compound 3.16 µM, first compound 0.03 µM) of 68%, a viability, T/C (second compound 3.16 µM, first compound 0.0949 µM) of 81.9% and a viability, T/C (second compound 3.16 µM, first compound 0.3 µM) of 1.46%. It also gave a viability, T/C (second compound 3.16 µM, first compound 0.949 µM) of 1.05%, a viability, T/C (second compound 3.16 µM, first compound 3 µM) of 1.4% and a viability, T/C (second compound 10 µM, first compound 0.00949 µM) of 75%. The viability, T/C (second compound 10 µM, first compound 0.03 µM) was 83.4%, the viability, T/C (second compound 10 µM, first compound 0.0949 µM) was 108% and the viability, T/C (second compound 10 µM, first compound 0.3 µM) was 0.9%. For the same compound, the viability, T/C (second compound 10 µM, first compound 0.949 µM) was 1.13% and the viability, T/C (second compound 10 µM, first compound 3 µM) was 1.37%.

Work on CC(C)(C)c1cnc(CSc2cnc(NC(=O)C3CCNCC3)s2)o1 + CCN1CCN(Cc2ccc(Nc3ncc(F)c(-c4cc(F)c5nc(C)n(C(C)C)c5c4)n3)nc2)CC1 yielded an IC50 [1] of 0.577 µM, an IC50 [2] of 0.223 µM and an IC50 [3] of 0.161 µM. The IC50 [4] was 0.149 µM, the IC50 [5] was 0.134 µM and the viability, T/C (second compound 0.01 µM, first compound 0.00949 µM) was 107%. It also gave a viability, T/C (second compound 0.01 µM, first compound 0.03 µM) of 125%, a viability, T/C (second compound 0.01 µM, first compound 0.0949 µM) of 157% and a viability, T/C (second compound 0.01 µM, first compound 0.3 µM) of 114%. For the same compound, the viability, T/C (second compound 0.01 µM, first compound 0.949 µM) was 0.93%, the viability, T/C (second compound 0.01 µM, first compound 3 µM) was 1.32% and the viability, T/C (second compound 0.0316 µM, first compound 0.00949 µM) was 97.8%. The viability, T/C (second compound 0.0316 µM, first compound 0.03 µM) was 112%, the viability, T/C (second compound 0.0316 µM, first compound 0.0949 µM) was 133% and the viability, T/C (second compound 0.0316 µM, first compound 0.3 µM) was 27.8%. For the same compound, the viability, T/C (second compound 0.0316 µM, first compound 0.949 µM) was 0.9%, the viability, T/C (second compound 0.0316 µM, first compound 3 µM) was 1.39% and the viability, T/C [20] was 73.8%. It also gave a viability, T/C [21] of 93.5%, a viability, T/C [22] of 104% and a viability, T/C [23] of 6.06%. It also gave a viability, T/C [24] of 0.75%, a viability, T/C [25] of 1.11% and a viability, T/C [26] of 66.7%. It also gave a viability, T/C [27] of 77.5%, a viability, T/C [28] of 100% and a viability, T/C [29] of 1.34%. The viability, T/C [30] was 1.19%, the viability, T/C [31] was 1.26% and the viability, T/C [32] was 67.9%. It also gave a viability, T/C [33] of 81.3%, a viability, T/C [34] of 70.7% and a viability, T/C [35] of 1.74%. For the same compound, the viability, T/C [36] was 1.59% and the viability, T/C [37] was 1.53%.

For C=CC(=O)N1CCN(c2nc(=O)n(-c3c(C)ccnc3C(C)C)c3nc(-c4c(O)cccc4F)c(F)cc23)C(C)C1 (configuration not stated), the viability, T/C (compound 0.0316 µM) was 105% and 95%, the viability, T/C (compound 0.1 µM) was 108% and 101% and the viability, T/C (compound 0.316 µM) was 111% and 103%. For the same compound, the viability, T/C (compound 1 µM) was 114% and 115%, the viability, T/C (compound 3.16 µM) was 122% and 110% and the viability, T/C (compound 10 µM) was 100% and 98.5%. For the same compound, the IC50 (curve of compound) was greater than 10 µM.

Compound CC(C)n1nc(-c2ccc3oc(N)nc3c2)c2c(N)ncnc21 + CC(C)NCC(C(=O)N1CCN(c2ncnc3c2C(C)CC3O)CC1)c1ccc(Cl)cc1 has an IC50 [3] of 0.0789 µM, an IC50 [4] greater than 0.1 µM and an IC50 [5] greater than 0.1 µM. It also gave an IC50 [18] greater than 0.1 µM, an IC50 [19] greater than 0.1 µM and a viability, T/C (second compound 0.1 µM, first compound 0.000316 µM) of 88.9%. The viability, T/C (second compound 0.1 µM, first compound 0.001 µM) was 90.7%, the viability, T/C [6] was 82.2% and the viability, T/C [7] was 69.3%. It also gave a viability, T/C [8] of 61%, a viability, T/C [9] of 47.7% and a viability, T/C (second compound 0.316 µM, first compound 0.000316 µM) of 67.5%. The viability, T/C (second compound 0.316 µM, first compound 0.001 µM) was 73.5%, the viability, T/C [10] was 75.5% and the viability, T/C [11] was 88.4%. The viability, T/C [12] was 81%, the viability, T/C [13] was 52.2% and the viability, T/C (second compound 1 µM, first compound 0.000316 µM) was 59.4%. The viability, T/C (second compound 1 µM, first compound 0.001 µM) was 74.5%, the viability, T/C [14] was 106% and the viability, T/C [15] was 97.2%. For the same compound, the viability, T/C [16] was 71.2%, the viability, T/C [17] was 56.7% and the viability, T/C (second compound 3.16 µM, first compound 0.000316 µM) was 68.9%. The viability, T/C (second compound 3.16 µM, first compound 0.001 µM) was 98.9%, the viability, T/C (second compound 3.16 µM, first compound 0.00316 µM) was 106% and the viability, T/C (second compound 3.16 µM, first compound 0.01 µM) was 69.2%. For the same compound, the viability, T/C (second compound 3.16 µM, first compound 0.0316 µM) was 66.1%, the viability, T/C (second compound 3.16 µM, first compound 0.1 µM) was 63.9% and the viability, T/C (second compound 10 µM, first compound 0.000316 µM) was 77%. It also gave a viability, T/C (second compound 10 µM, first compound 0.001 µM) of 96.2%, a viability, T/C (second compound 10 µM, first compound 0.00316 µM) of 69.7% and a viability, T/C (second compound 10 µM, first compound 0.01 µM) of 45.4%. For the same compound, the viability, T/C (second compound 10 µM, first compound 0.0316 µM) was 53% and the viability, T/C (second compound 10 µM, first compound 0.1 µM) was 51.5%.
